This note sets out measurements from patent US9670214B2, “Small molecule myristate inhibitors of Bcr-abl and methods of use” (DANA-FARBER CANCER INSTITUTE, INC., priority 2007, dated 2017).

Molecules are shown by their SMILES.

This test has as its system Ba/F3 cells (IL-3 dependent murine pro-B cell line). In words: Proliferation assay (MTT), parental Ba/F3 cells. It is filed as cell-based. The settings on record: Mus musculus, 48 h, drug concentrations 0.005-10 μM, read-out: BaF3. Here is the method: Interleukin-3 (IL-3) dependent murine pro-B cell line, Ba/F3, and murine myeloid precursor cell line, 32D, were maintained in RPMI-1640 medium supplemented with L-Glutamine, 10% FBS and 10 U/ml recombinant murine IL-3 (Roche). Mo7e human megakarioblastic cell line was grown in RPMI-1640 medium supplemented with L-Glutamine, 20% FBS and 5 ng/ml recombinant human granulocyte macrophage cell stimulating factor (GM-CSF) (R&D Systems) or 200 ng/ml stem cell factor (SCF) (Biosource).
Cells (0.3-0.6×10^6/ml) were plated in duplicate or triplicate in 96-well plates containing increasing drug concentrations (0.005-10 μM). After incubation at 37° C. in 5% CO2 for 48 h, the effect of the compounds on cell viability was determined by MTT (Promega) colorimetric dye reduction method. Inhibition of cell proliferation was calculated as a percentage of growth of DMSO treated cells, and IC50 values were determined with Microsoft Excel XLfit3.
Take `CCNC(=O)c1cc2c(Nc3ccc(OC(F)(F)F)cc3)ncnc2n1C`: the IC50 was determined as 5.37 µM.
For `COCCCNC(=O)c1ccc(-c2ncnc(Nc3ccc(OC(F)(F)F)cc3)c2C)cc1`, the IC50 is 3.11 µM.
Take `OCc1cc2c(Nc3ccc(OC(F)(F)F)cc3)ncnc2s1`: the IC50 was > 10 µM.
With `CCCCn1cc2c(Nc3ccc(OC(F)(F)F)cc3)ncnc2n1`, the IC50 was > 10 µM.
On to `Cc1c(Nc2ccc(OC(F)(F)F)cc2)ncnc1-c1cnn(CC(C)C)c1`, for which the IC50 was 1.46 µM.
Turning to `O=[N+]([O-])c1cccc(-c2cn3cnc(Nc4ccc(OC(F)(F)F)cc4)cc3n2)c1` [2-(3-nitrophenyl)-N-(4-(trifluoromethoxy)phenyl)imidazo[1,2-c]pyrimidin-7-amine], the IC50 turned out to be 9.6 µM.
Consider `FC(F)(F)Oc1ccc(Nc2ncnc3c2cnn3-c2cc(C(F)(F)F)ccn2)cc1`, for which the IC50 was > 10 µM.
On to `FC(F)(F)Oc1ccc(Nc2ncnc3c2cnn3Cc2ccccn2)cc1`, for which the IC50 is > 10 µM.
`CCCCS(=O)(=O)Nc1ccc(-c2cc(Nc3ccc(OC(F)(F)F)cc3)ncn2)cc1`: the IC50 was determined as 8.92 µM.
Take `O=C(c1ccc2c(Nc3ccc(OC(F)(F)F)cc3)ncnc2c1)N1CCCC(CO)C1` (centres unmarked): the IC50 is > 10 µM.
As for `NS(=O)(=O)c1cccc(-n2ncc3c(Nc4ccc(OC(F)(F)F)cc4)ncnc32)c1`, the figure is 1.8 µM.
For `COC[C@H]1CCCN1C(=O)c1cc2c(Nc3ccc(OC(F)(F)F)cc3)ncnc2n1C`, the IC50 was > 10 µM.
`Cn1c(C(=O)N2CCC3(CC2)C(=O)NCN3c2ccccc2)cc2c(Nc3ccc(OC(F)(F)F)cc3)ncnc21`: the IC50 was > 10 µM.
To `CN(C)CC(C#N)n1ncc2c(Nc3ccc(OC(F)(F)F)cc3)ncnc21` (centres unmarked) belongs > 10 µM; to `FC(F)(F)Oc1ccc(Nc2ncnc3c2cnn3-c2ccc(Cl)cc2Cl)cc1`, > 10 µM; to `CN(C)C1CCN(C(=O)c2ccc3c(Nc4ccc(OC(F)(F)F)cc4)ncnc3c2)C1` (centres unmarked), > 10 µM.
Turning to `FC(F)(F)Oc1ccc(Nc2ncnc3c2ncn3CCN2CCOCC2)cc1`, the IC50 was > 10 µM.
As for `CCS(=O)(=O)Nc1ccc(-c2cc(Nc3ccc(OC(F)(F)F)cc3)ncn2)cc1`, the figure is 8.31 µM; as for `FC(F)(F)Oc1ccc(Nc2ncnc3[nH]ncc23)cc1`, > 10 µM; as for `FC(F)(F)Oc1ccc(Nc2ncnc3c2cnn3C2CCCCC2)cc1`, 9.3 µM.
With `Cn1c(C(=O)N2CCCC(CO)C2)cc2c(Nc3ccc(OC(F)(F)F)cc3)ncnc21` (centres unmarked), the IC50 stood at 7.29 µM.
Take `FC(F)(F)Oc1ccc(Nc2ncnc3nn(Cc4ccccc4)cc23)cc1`: the IC50 is > 10 µM.
Consider `CCS(=O)(=O)n1ncc2c(Nc3ccc(OC(F)(F)F)cc3)ncnc21`, for which the IC50 was 7 µM.
For the molecule `CCc1ccccc1-n1cc2c(Nc3ccc(OC(F)(F)F)cc3)ncnc2n1`, the IC50 was > 10 µM.
With `CC(C)S(=O)(=O)Nc1ccc(-c2cc(Nc3ccc(OC(F)(F)F)cc3)ncn2)cc1`, the IC50 was determined as 6.93 µM.
As to `Cn1cc(-c2cc(Nc3ccc(OC(F)(F)F)cc3)ncn2)cn1`, the IC50 is > 10 µM.
Take `Fc1cc(Cn2cc3c(Nc4ccc(OC(F)(F)F)cc4)ncnc3n2)ccc1C(F)(F)F`: the IC50 was found to be 4.6 µM.
To `Fc1ccccc1-n1cc2c(Nc3ccc(OC(F)(F)F)cc3)ncnc2n1` belongs > 10 µM; to `O=Cc1cnc2c(ccn2CCN2CCOCC2)c1Nc1ccc(OC(F)(F)F)cc1Br`, > 10 µM.
As for `Cn1c(C(=O)N2CCC(Br)CC2)cc2c(Nc3ccc(OC(F)(F)F)cc3)ncnc21`, the figure is > 10 µM; as for `FC(F)(F)Cn1ncc2c(Nc3ccc(OC(F)(F)F)cc3)ncnc21`, > 10 µM.
As for `COC1CCN(C(=O)c2cc3c(Nc4ccc(OC(F)(F)F)cc4)ncnc3s2)CC1`, the IC50 is > 10 µM.
To `Cn1cnc2ncnc(Nc3ccc(OC(F)(F)F)cc3)c21` belongs > 10 µM.
Take `CN1C(=O)Cc2c(Nc3ccc(OC(F)(F)F)cc3)ncnc21`: the IC50 was > 10 µM.
On to `CCCCn1ncc2c(Nc3ccc(OC(F)(F)F)cc3)ncnc21`, for which the IC50 turned out to be 6.6 µM.
As to `O=C1c2ccccc2C(=O)N1CCn1ncc2c(Nc3ccc(OC(F)(F)F)cc3)ncnc21`, the IC50 is > 10 µM.
Consider `O=C(c1ccc2c(Nc3ccc(OC(F)(F)F)cc3)ncnc2c1)N1CCC(Br)CC1`, for which the IC50 came to 7.42 µM.
As to `FC(F)(F)Oc1ccc(Nc2ncnc3c2cnn3Cc2ccccc2)cc1`, the IC50 is > 10 µM.
To `Cc1cccc(-n2ncc3c(Nc4ccc(OC(F)(F)F)cc4)ncnc32)c1C` belongs > 10 µM; to `FC(F)(F)Oc1ccc(Nc2cc(Nc3cc(C4CC4)[nH]n3)ncn2)cc1`, 5.62 µM; to `NCCn1ncc2c(Nc3ccc(OC(F)(F)F)cc3)ncnc21`, > 10 µM.
On to `COc1ccc(Cn2ccc3c(Nc4ccc(OC(F)(F)F)cc4)ncnc32)cc1`, for which the IC50 is > 10 µM.
For `FC(F)(F)Oc1ccc(Nc2ncnc3c2cnn3Cc2ccncc2)cc1`, the IC50 is > 10 µM.
Consider `CC(C)(C)n1ncc2c(Nc3ccc(OC(F)(F)F)cc3)ncnc21`, for which the IC50 stood at 7.3 µM.
Take `CCOC(=O)Cc1cnc(NC(=O)c2ccc3c(Nc4ccc(OC(F)(F)F)cc4)ncnc3c2)s1`: the IC50 was > 10 µM.
As to `Cc1c(Nc2ccc(OC(F)(F)F)cc2)ncnc1-c1cnn(Cc2ccccc2)c1`, the IC50 is 9.9 µM.
In the case of `CCn1cc2c(Nc3ccc(OC(F)(F)F)cc3)ncnc2n1`, the IC50 is > 10 µM.
Turning to `NC(=O)Cn1cc2c(Nc3ccc(OC(F)(F)F)cc3)ncnc2n1`, the IC50 is > 3.3 µM.
To `FC(F)(F)Oc1ccc(Nc2ncnc3nn(Cc4cccc(Br)c4)cc23)cc1` belongs > 10 µM.
For the molecule `CCn1ncc2c(Nc3ccc(OC(F)(F)F)cc3)ncnc21`, the IC50 was > 10 µM.
As for `FC(F)(F)Oc1ccc(Nc2ncnc3c2cnn3CC2CCOC2)cc1` (centres unmarked), the IC50 was > 10 µM.
For `CCc1ccccc1-n1ncc2c(Nc3ccc(OC(F)(F)F)cc3)ncnc21`, the IC50 was > 10 µM.
For `OCCn1cc2c(Nc3ccc(OC(F)(F)F)cc3)ncnc2n1` [2-(4-(4-(trifluoromethoxy)phenylamino)-2H-pyrazolo[3,4-d]pyrimidin-2-yl)ethanol], the IC50 is > 10 µM.
To `OC[C@H]1OC(n2cnc3c(Nc4ccc(OC(F)(F)F)cc4)ncnc32)[C@H](O)[C@@H]1O` (some centres unmarked) belongs > 10 µM; to `NC(=O)C1CCN(C(=O)c2ccc3c(Nc4ccc(OC(F)(F)F)cc4)ncnc3c2)CC1`, > 10 µM.
With `Oc1cccc(Cn2cc3c(Nc4ccc(OC(F)(F)F)cc4)ncnc3n2)c1`, the IC50 was found to be 6.9 µM.
For the molecule `FC(F)(F)Oc1ccc(Nc2ncnc3nn(CC4CCOC4)cc23)cc1` (centres unmarked), the IC50 is > 10 µM.
For `O=C(c1ccc2c(Nc3ccc(OC(F)(F)F)cc3)ncnc2c1)N1CCC(O)CC1`, the IC50 was > 10 µM.
As for `OCCn1ncc2c(Nc3ccc(OC(F)(F)F)cc3)ncnc21` [2-(4-(4-(trifluoromethoxy)phenylamino)-1H-pyrazolo[3,4-d]pyrimidin-1-yl)ethanol], the figure is > 10 µM; as for `NC(=O)CCn1ncc2c(Nc3ccc(OC(F)(F)F)cc3)ncnc21`, 8.7 µM; as for `CCN(CC)S(=O)(=O)c1ccc(-c2ncnc(Nc3ccc(OC(F)(F)F)cc3)c2C)cc1`, > 10 µM.
For `FC(F)(F)Oc1ccc(Nc2cc(-c3cnn(Cc4cccnc4)c3)ncn2)cc1`, the IC50 is > 10 µM.
For the molecule `FC(F)(F)Oc1ccc(Nc2ncnc3nn(C4CCCCC4)cc23)cc1`, the IC50 is > 10 µM.
In the case of `FC(F)(F)Oc1ccc(Nc2cc(-c3cc(NCCN4CCOCC4)ncn3)ncn2)cc1`, the IC50 is > 10 µM.
In the case of `Cc1c(Nc2ccc(OC(F)(F)F)cc2)ncnc1-c1ccc(S(N)(=O)=O)cc1`, the IC50 is > 10 µM.
`O=C1Cc2c(ncnc2Nc2ccc(OC(F)(F)F)cc2)N1`: the IC50 is > 10 µM.
Regarding `Cc1cccc(-n2cc3c(Nc4ccc(OC(F)(F)F)cc4)ncnc3n2)c1C`, the IC50 is > 10 µM.
To `FC(F)(F)Oc1ccc(Nc2ncnc3nn(-c4cc(C(F)(F)F)ccn4)cc23)cc1` belongs > 10 µM.
For the molecule `FC(F)(F)Oc1ccc(Nc2cc(Nc3nccn3-c3cccc(C(F)(F)F)c3)ncn2)cc1`, the IC50 is 2.56 µM.
For `Fc1ccccc1-n1ncc2c(Nc3ccc(OC(F)(F)F)cc3)ncnc21`, the IC50 was > 10 µM.
In the case of `NC(=O)Cn1ncc2c(Nc3ccc(OC(F)(F)F)cc3)ncnc21`, the IC50 is > 10 µM.
As to `FC(F)(F)Oc1ccc(Nc2ncnc3nn(-c4ccc(Cl)cc4Cl)cc23)cc1`, the IC50 was > 10 µM.
As for `Cc1c(Nc2ccc(OC(F)(F)F)cc2)ncnc1-c1cnn(C)c1`, the figure is > 10 µM; as for `FC(F)(F)Oc1ccc(Nc2ncnc3nn(Cc4cccnc4)cc23)cc1`, 2.1 µM.
As to `COCCCNC(=O)CCn1ccc2c(Nc3ccc(OC(F)(F)F)cc3)ncnc21`, the IC50 was > 10 µM.
As to `FC(F)(F)Oc1ccc(Nc2ncnc3nn(CCc4ccccc4)cc23)cc1`, the IC50 is > 10 µM.
Regarding `FC(F)(F)Oc1ccc(Nc2ncnc3c2cnn3CCc2ccccc2)cc1`, the IC50 was > 10 µM.
For the molecule `FC(F)(F)Cn1cc2c(Nc3ccc(OC(F)(F)F)cc3)ncnc2n1`, the IC50 was found to be 8 µM.
As for `CN1CCCN(C(=O)c2ccc3c(Nc4ccc(OC(F)(F)F)cc4)ncnc3c2)CC1`, the figure is 6.98 µM.
Consider `OC[C@H]1OC(n2ccc3c(Nc4ccc(OC(F)(F)F)cc4)ncnc32)[C@H](O)[C@@H]1O` (some centres unmarked), for which the IC50 is > 10 µM.
With `CC(C)S(=O)(=O)c1ccc(-c2cc(Nc3ccc(OC(F)(F)F)cc3)ncn2)cc1`, the IC50 is > 10 µM.
In the case of `CCOC(=O)C1CCCN(C(=O)c2cc3c(Nc4ccc(OC(F)(F)F)cc4)ncnc3n2C)C1` (centres unmarked), the IC50 was > 10 µM.
For `O=C(c1cc2c(Nc3ccc(OC(F)(F)F)cc3)ncnc2s1)N1CCN(N2CCCC2)CC1`, the IC50 is 5.77 µM.
